Results published in patent publication US11059787B2, “Crystalline form of lenvatinib mesylate and methods thereof” (Shenzhen Bolan Pharmaceutical Co., LTD., priority 2019, dated 2021).

How the values were obtained:
[1] = Solubility in water with 1% polyvinyl alcohol; format: physicochemical; conditions: solids added until not completely dissolved, in suspension for 5 hours, methanesulfonate
Experimental: The solubility of Form XI was measured as compared to the previously reported Form A and Form C in U.S. Pat. No. 7,612,208. Form XI, Form A and Form C solids were gradually added into water with 1% polyvinyl alcohol until the solids could not dissolve completely and stay in suspension for 5 hours.

[2] = Storage stability of the crystalline form for 15 days, compared by XRPD; format: physicochemical; conditions: stored 15 days at 8° C., 25° C., 25° C./92.5% RH, 25° C./4500 LUX and 40° C./75% RH; XRPD comparison
Experimental: The stability of Form XI was measured after being stored for 15 days under the following conditions: 8° C., 25° C., 25° C./92.5% RH, 25° C./4500 LUX and 40° C./75% RH.

in vivo = conditions: BALB/c, mouse, po

Row | Solubility [1] [mg/mL] | Stability under storage conditions [2] | AUC(0-inf) (in vivo) [ng·h/mL] | Cmax (in vivo) [ng/mL] | Tmax (in vivo) [min] | bioavailability (in vivo) [%] | half-life (in vivo) [min] | Compound
1 | 11.75 | – | – | – | – | – | – | COc1cc2nccc(Oc3ccc(NC(=O)NC4CC4)c(Cl)c3)c2cc1C(N)=O.CS(=O)(=O)O [Form A, 4-(3-chloro-4-(cyclopropylaminocarbonyl)aminophenoxy)-7-methoxy-6-quinolinecarboxamide methanesulfonate]
2 | 16.175 | – | – | – | – | – | – | COc1cc2nccc(Oc3ccc(NC(=O)NC4CC4)c(Cl)c3)c2cc1C(N)=O.CS(=O)(=O)O [Form C, 4-(3-chloro-4-(cyclopropylaminocarbonyl)aminophenoxy)-7-methoxy-6-quinolinecarboxamide methanesulfonate]
3 | 26.65 | stable | 38900 ± 11100 | 11500 ± 2920 | 50 | 109 | 117 ± 2.4 | COc1cc2nccc(Oc3ccc(NC(=O)NC4CC4)c(Cl)c3)c2cc1C(N)=O.CS(=O)(=O)O [Form XI, 4-(3-chloro-4-(cyclopropylaminocarbonyl)aminophenoxy)-7-methoxy-6-quinolinecarboxamide methanesulfonate]
